Assays:
[1] = Metabolism test using human liver microsome fractions; type: in vitro ADME; details: human liver microsomes, test compound 10 μmol/L, NADPH and UDP-glucuronic acid, 37° C.
Description: A reaction composition solution (comprising NADPH Regenerating System, Solution A (manufactured by Corning Inc., REF. 451220) (50 μL), NADPH Regenerating System, Solution B (manufactured by Corning Inc., REF. 451200) (10 μL), 250 mM UDP-glucuronic acid (40 μL), UGT Reaction Mix Solution B (manufactured by Corning Inc., REF. 451320) (200 μL), and distilled water (640 μL)) in which human liver microsomes (manufactured by Xenotech, Cat. No. H610) or monkey liver microsomes (manufactured by Xenotech, Cat. No. P2000) (corresponding to 1 mg of protein) were suspended was prepared. After the solution was incubated at 37° C. for 5 minutes, each test compound dissolved into DMSO (manufactured by FUJIFILM Wako Pure Chemical Corporation, Code No. 043-07216) was added to the solution so that the final concentration was set to be 10 μmol/L, and a reaction was initiated. After 0, 5, 10, 15, 20, and 30 minute(s) from the initiation of the metabolism reaction, 100 μL of the reaction solution was taken out of the reaction system, and added to 200 μL of acetonitrile to stop the reaction. After the reaction was completed, the reaction solution was subjected to a work-up such as deproteinization, and then subjected to an UV-HPLC analysis to carry out the following analysis.
The peak area of each test compound was calculated by LabSolution software (Shimadzu Corporation), and the residual ratio (%) at each culture time of test material was calculated by the following equation. Residual ratio (%)=Peak area at each culture time[…]Peak area at 0 (initial time)
Next, the residual amount (nmol/mg/mL) at each culture time of test material was calculated by the following equation. Residual amount (nmol/mg/mL)=Initial concentration of reaction solution (10 nmol/mg/mL)×residual ratio÷100
Finally, a graph in which the reaction time was plotted at horizontal axis and the residual amount was plotted at longitudinal axis was prepared on Excel, and the inclination was calculated as the elimination rate (pmol/min/mg-P) within the time range in which the graph was deemed linear.

[2] = molecular target: T1, GST fusion human Keap1 (amino acid residue: 325-624) protein (Homo sapiens, UniProt Q14145); test: Keap1-Nrf2 binding inhibition test (fluorescence polarization); details: compound concentration of 100 nM; read-out: inhibition rate
T1 construct: GST fusion human Keap1 (amino acid residue: 325-624) protein; purchased Protein tech Ag0779
Description: The inhibitory activity of each test compound on the binding between Nrf2 and Keap1 was measured by the fluorescence polarization method. A solution consisting of 20 mM tris-hydrochloride pH7.5 (NIPPON GENE CO., LTD., REF: 318-90225), 150 mM NaCl [FUJIFILM Wako Pure Chemical. Corporation, REF: 191-01665], 0.05% Tween 20 (BioRAD, REF: 161-0781), and 5 mM DTT (FUJIFILM Wako Pure Chemical Corporation, REF: 049-08972) was used as a buffer solution. To a test compound solution (70 μL) adjusted to each concentration with 10% DMSO (FUJIFILM Wako Pure Chemical Corporation, REF: 043-07216) was added a buffer solution (350 μL) comprising 6 nM FITC-labeled Nrf2 peptide (FITC-Ahx-LDEETGEFL-NH2, Invitrogen) and 0.2 mg/mL of BSA (FUJIFILM Wako Pure Chemical Corporation, REF: 017-22231). Each 120 μL of the resulting mixture was dispensed into a black 96 well plate, and a buffer solution (80 μL) comprising 2.5 nM GST fusion human Keap1 (amino acid residue: 325-624) protein (Protein tech, REF: Ag0779) was added thereto. A Keap1-free buffer solution was added to some wells to prepare negative controls. Meanwhile, compound-free wells were used as positive controls. The plate was incubated at room temperature for 30 minutes, and each fluorescence polarization at excitation wavelength of 482 nm and fluorescence wavelength of 530 nm was measured by using a plate reader Clariostar (BMG Labtech). The fluorescence polarization of the negative control was set to be 100% inhibition, fluorescence polarization of the positive control was set to be 0% inhibition, and the inhibition rate of each test compound at 100 nM was calculated by using the following equation. Inhibition rate (%)=100−((Fluorescence polarization when test compound was added−Fluorescence polarization of negative control)/(Fluorescence polarization of positive control−Fluorescence polarization of negative control))×100

NQO1 = NQO1 expression induction test in mouse kidney (single administration); type: in vivo; details: BALB/c mouse kidney, 6 hours after administration, ratio to control group
Description: Each test compound solution for administration was prepared by dissolving or suspending each test compound into a 0.5 w/v % aqueous solution of methylcellulose (0.5% MC) (manufactured by Wako Pure Chemical Industries, Ltd.).
Each prepared test compound was orally administered to a BALB/c mouse (female, provided by Charles River Laboratories Japan, Inc.). Non-treated group was used as a control group. After 6 hours from the administration, each mouse was anesthetized with isoflurane, and euthanized with bloodletting by incising a lower aorta. Immediately, the left kidney was excised, cut into small pieces, and then the cut kidney pieces were transferred to RNA later (Thermo Fisher Scientific).
Then, mRNA was extracted from the collected kidney pieces by using NucleoSpin (registered trademark) RNA Kit (Takara Bio Inc.), each concentration was quantified by FlexStation3 (Molecular Devices), and then the concentration was adjusted to a constant concentration. A reverse transcription synthesis of cDNA was carried out from the mRNA with the constant concentration by using PrimeScript™ RT reagent Kit with gDNA Eraser and PCR Thermal Cycler (Takara Bio Inc.). Then, in addition to the resulting cDNA, SYBR (registered trademark) Premix Ex Taq™ II and NQO1, GAPDH primer (Takara Bio Inc.) were used to carry out Real-time PCR by PCR Thermal Cycler Dice Real time (Takara Bio Inc.), and the NQO1 expression was quantified by using the GAPDH expression as the reference.
In order to evaluate the NQO1 expression induction in each group, the NQO1 expression induction ratio was calculated by using the following equation. (NQO1 expression induction ratio)=(Average NQO1 expression in test compound administered group)[…](Average NQO1 expression in control group)

T1 sequence (Q14145 325-624): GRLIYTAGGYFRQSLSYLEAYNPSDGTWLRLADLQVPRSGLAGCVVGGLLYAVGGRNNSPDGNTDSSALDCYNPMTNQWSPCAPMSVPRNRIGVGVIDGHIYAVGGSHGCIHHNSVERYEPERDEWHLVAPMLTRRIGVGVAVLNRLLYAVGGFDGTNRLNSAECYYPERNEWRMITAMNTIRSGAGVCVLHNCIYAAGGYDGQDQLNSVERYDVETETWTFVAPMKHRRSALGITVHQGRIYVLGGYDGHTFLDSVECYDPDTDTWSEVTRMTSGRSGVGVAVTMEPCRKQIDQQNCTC

SMILES	Human metabolic rate [1]	also measured
CC[C@@H]1CN(Cc2cc(C(c3ccc4c(nnn4C)c3C)C(C)(C)C(=O)O)ccc2C)Cc2cc3c(cc2O1)OC(F)(F)O3 (single isomer, unassigned) [Example 30]	E (metabolic rate≥250 pmol/min/mg protein)	–
CC[C@@H]1CN(Cc2cc(C(c3ccc4c(nnn4C)c3C)C(C)(C)C(=O)O)ccc2C)Cc2ccccc2O1 (single isomer, unassigned) [Example C2, reference compound]	E (metabolic rate≥250 pmol/min/mg protein)	–
CC[C@H]1CN(Cc2cc(C(c3ccc4c(nnn4C)c3C)C(C)(C)C(=O)O)ccc2C)Cc2cc3ncccc3cc2O1 (single isomer, unassigned; diastereomer 1) [Example 57-(c)]	C (150≤metabolic rate<200 pmol/min/mg protein)	inhibition at 0.1 µM [2]: ≥ 50%
CC[C@@H]1CN(Cc2cc(C(c3ccc4c(nnn4C)c3C)C(C)(C)C(=O)O)ccc2C)Cc2c(ccc3cn[nH]c23)O1 (single isomer, unassigned) [Example 43]	A (metabolic rate<100 pmol/min/mg protein)	inhibition at 0.1 µM [2]: ≥ 50%; fold induction at 10 mg/kg (NQO1; Mus musculus, po, 6 h): > 6
CC[C@@H]1CN(Cc2cc(C(c3ccc4c(nnn4C)c3C)C(C)(C)C(=O)O)ccc2C)Cc2cc3c(cc2O1)CCCC3 (single isomer, unassigned) [Example 34]	C (150≤metabolic rate<200 pmol/min/mg protein)	–
CC[C@@H]1CN(Cc2cc(C(c3ccc4c(nnn4C)c3C)C(C)(C)C(=O)O)ccc2C)Cc2cc3cccnc3cc2O1 (single isomer, unassigned) [Example 40]	E (metabolic rate≥250 pmol/min/mg protein)	–
CC[C@@H]1CN(Cc2cc(C(c3ccc4c(nnn4C)c3C)C(C)(C)C(=O)O)ccc2C)Cc2cc3cccnc3cc2O1 (single isomer, unassigned) [Example 39]	A (metabolic rate<100 pmol/min/mg protein)	inhibition at 0.1 µM [2]: ≥ 50%; fold induction at 10 mg/kg (NQO1; Mus musculus, po, 6 h): 3 to 6
CC[C@@H]1CN(Cc2cc(C(c3ccc4c(nnn4C)c3C)C(C)(C)C(=O)O)ccc2C)Cc2ncc3ccccc3c2O1 (single isomer, unassigned) [Example 45]	A (metabolic rate<100 pmol/min/mg protein)	inhibition at 0.1 µM [2]: ≥ 50%; fold induction at 10 mg/kg (NQO1; Mus musculus, po, 6 h): > 6
CCCC1CN(Cc2cc(C(c3ccc4c(nnn4C)c3C)C(C)(C)C(=O)O)ccc2C)Cc2cc3ncccc3cc2O1 (centres unmarked) [Example 77-(b), 3-(1,4-dimethyl-1H-benzo[d][1,2,3]triazol-5-yl)-2,2-dimethyl-3-(4-methyl-3-((2-propyl-2,3-dihydro-[1,4]oxazepino[7,6-g]quinolin-4 (5H)-yl)methyl)phenyl)propanoic Acid]	B (100≤metabolic rate<150 pmol/min/mg protein)	inhibition at 0.1 µM [2]: ≥ 50%; fold induction at 20 mg/kg (NQO1; Mus musculus, po, 6 h, Dose 20 mg/kg): > 6
CC[C@H]1CN(Cc2cc(C(c3ccc4c(nnn4C)c3C)C(C)(C)C(=O)O)ccc2C)Cc2ncc3ccccc3c2O1 (single isomer, unassigned) [Example 90]	C (150≤metabolic rate<200 pmol/min/mg protein)	–
CC[C@@H]1CN(Cc2cc(C(c3ccc4c(nnn4C)c3C)C(C)(C)C(=O)O)ccc2C)Cc2cc3c(cc2O1)CCC3 (single isomer, unassigned) [Example 32]	D (200≤metabolic rate<250 pmol/min/me protein)	–
CC[C@@H]1CN(Cc2cc(C(c3ccc4c(nnn4C)c3C)C(C)(C)C(=O)O)ccc2C)Cc2ncc3ccccc3c2O1 (single isomer, unassigned) [Example 46]	E (metabolic rate≥250 pmol/min/mg protein)	–
CC[C@@H]1CN(Cc2cc(C(c3ccc4c(nnn4C)c3C)C(C)(C)C(=O)O)ccc2C)Cc2c(ccc3cn[nH]c23)O1 (single isomer, unassigned) [Example 44]	E (metabolic rate≥250 pmol/min/mg protein)	–
Cc1ccc(C(c2ccc3c(nnn3C)c2C)C(C)(C)C(=O)O)cc1CN1Cc2cc3ncccc3cc2OC2(CC2)C1 (single isomer, unassigned) [Example 86, 3-(3-((3′H-spiro[cyclopropane-1,2′-[1,4]oxazepino[7,6-g]quinoline]-4′ (5′H)-yl)methyl)-4-methylphenyl)-3-(1,4-dimethyl-1H-benzo[d][1,2,3]triazol-5-yl)-2,2-dimethylpropanoic Acid]	E (metabolic rate≥250 pmol/min/mg protein)	–
CCCC1CN(Cc2cc(C(c3ccc4c(nnn4C)c3C)C(C)(C)C(=O)O)ccc2C)Cc2cc3ncccc3cc2O1 (centres unmarked) [Example 78-(b), 3-(1,4-dimethyl-1H-benzo[d][1,2,3]triazol-5-yl)-2,2-dimethyl-3-(4-methyl-3-((2-propyl-2,3-dihydro-[1,4]oxazepino[7,6-g]quinolin-4 (5H)-yl)methyl)phenyl)propanoic Acid]	B (100≤metabolic rate<150 pmol/min/mg protein)	NQO1 expression induction activity (NQO1; Dose 20 mg/kg, oral, 20 mg/kg): B (3<NQO1 expression induction ratio≤6)
CC[C@@H]1CN(Cc2cc(C(c3ccc4c(nnn4C)c3C)C(C)(C)C(=O)O)ccc2C)Cc2nc3ccccc3cc2O1 (single isomer, unassigned) [Example 38]	E (metabolic rate≥250 pmol/min/mg protein)	–
CC[C@@H]1CN(Cc2cc(C(c3ccc4c(nnn4C)c3C)C(C)(C)C(=O)O)ccc2C)Cc2ccc3c(c2O1)CCC3 (single isomer, unassigned) [Example 36]	C (150≤metabolic rate<200 pmol/min/mg protein)	–
CC[C@@H]1CN(Cc2cc(C(c3ccc4c(nnn4C)c3C)C(C)(C)C(=O)O)ccc2C)Cc2cc3ncccc3cc2O1 (single isomer, unassigned) [Example 42]	E (metabolic rate≥250 pmol/min/mg protein)	–
CC[C@@H]1CN(Cc2cc(C(c3ccc4c(nnn4C)c3C)C3(C(=O)O)CCC3)ccc2C)Cc2cc3ncccc3cc2O1 (single isomer, unassigned) [Example 88]	E (metabolic rate≥250 pmol/min/mg protein)	–
